What was measured:
Format in all cases: in vivo
Kochia scoparia [1] = experiment: Post-emergence herbicidal action against Kochia scoparia
Source text: (§1) The following abbreviations are used in the description and the tables that follow: • g of a.i./ha=grams of active substance (active ingredient) (=100% active compound) per hectare; • The sum total of the effects of the individual applications is reported under E^A; • expected values according to Colby are each reported under E^C.
(§2) The rating period is reported in days after application (DAT).

Bidens pilosa = experiment: Post-emergence herbicidal action against Bidens pilosa; conditions: for Herbicidal action / Herbicidal action against Bidens pilosa: 21 DAT
Description: (§3) When the observed efficacies exceed the formal sum total of the values of the tests with individual applications, they also exceed the expected value according to Colby, which is calculated using the formula below and is likewise regarded as an indication of synergism (cf. S. R. Colby; in Weeds 15 (1967) p. 20 to 22): E^C=A+B−([…])
(§4) Here: • A=efficacy of the active compound (A) in % at an application rate of a g a.i./ha; • B=efficacy of the active compound (B) in % at an application rate of b g a.i./ha; • E^C=expected value of the effect of the combination (A)+(B) in % at the combined application rate a+b g a.i./ha.
(§5) Seeds or rhizome pieces of mono- and dicotyledonous weeds are placed in sandy loam in pots, covered with soil and grown in a greenhouse under good growth conditions (temperature, air humidity, water supply). Three weeks after sowing, the test plants were treated at the three-leaf stage with the compositions according to the invention. The compositions according to the invention formulated as spray powders or as emulsion concentrates were sprayed onto the green plant parts in various dosages with an application rate of 300 to 800 l/ha of water (equivalent). After the test plants have been left to stand in the greenhouse under optimal growth conditions for about 3 to 4 weeks, the action of the preparations is scored visually in comparison to untreated controls. The compositions according to the invention also have good post-emergence herbicidal activity against a broad spectrum of economically important gramineous and broadleaf weeds.

Abutilon theophrasti [2] = experiment: Post-emergence herbicidal action against Abutilon theophrasti
Source text: as §1, §2

Setaria viridis = experiment: Post-emergence herbicidal action against Setaria viridis; conditions: for Herbicidal action / Herbicidal action against Setaria viridis: 21 DAT
Description: as §3, §4, §5

Echinochloa crus-galli = experiment: Post-emergence herbicidal action against Echinochloa crus-galli; conditions: 21 DAT
Description: as §3, §4, §5

Kochia scoparia [3] = experiment: Post-emergence herbicidal action against Kochia scoparia; conditions: 21 DAT
Eleusine indica = experiment: Post-emergence herbicidal action against Eleusine indica; conditions: 21 DAT; 1.7 g a.i./ha
Amaranthus palmeri = experiment: Post-emergence herbicidal action against Amaranthus palmeri; conditions: 21 DAT; for Herbicidal action: 5 g a.i./ha
Description: as §3, §4, §5

Sorghum halepense = experiment: Post-emergence herbicidal action against Sorghum halepense
Description: as §3, §4, §5

Pharbitis purpurea = experiment: Post-emergence herbicidal action against Pharbitis purpurea
Description: as §3, §4, §5

Abutilon theophrasti [4] = experiment: Post-emergence herbicidal action against Abutilon theophrasti; conditions: 21 DAT
Digitaria sanguinalis = experiment: Post-emergence herbicidal action against Digitaria sanguinalis
Description: as §3, §4, §5

Brachiaria platyphylla = experiment: Post-emergence herbicidal action against Brachiaria platyphylla
Description: as §3, §4, §5

## C=CC1(C(=O)N[C@H]2CO[C@@H](C(=O)OC)C2)CC(c2cc(Cl)cc(Cl)c2)=NO1 (relative stereo) [Compound A2, methyl rel-(2R,4R)-4-[[3-(3,5-dichlorophenyl)-5-vinyl-4H-isoxazole-5-carbonyl]amino]tetrahydrofuran-2-carboxylate]
Kochia scoparia [1]; g of a.i./ha by row: 30, 5, 5 + 30
  Herbicidal action 21 DAT against Kochia scoparia: 40%
Bidens pilosa; 5 g a.i./ha
  Herbicidal action: 45%
Bidens pilosa; 15 g a.i./ha
  Herbicidal action: 50%
Bidens pilosa; 45 g a.i./ha
  Herbicidal action: 70%
Abutilon theophrasti [2]; g of a.i./ha: 90, 30, 15, 15 + 90, 15 + 30
  Herbicidal action 21 DAT against Abutilon theophrasti: 75%
Setaria viridis; 1.7 g a.i./ha
  Herbicidal action: 10%
Echinochloa crus-galli; 15 g a.i./ha
  Herbicidal action: 80%
Kochia scoparia [3]; 5 g a.i./ha
  Herbicidal action: 40%
Eleusine indica
  Herbicidal action: 10%
Amaranthus palmeri
  Herbicidal action: 45%

## CC(C)OC(=O)[C@H]1C[C@@H](NC(=O)C2(C)CC(c3cccc(F)c3)=NO2)CO1 (relative stereo) [Compound A4, isopropyl rel-(2R,4R)-4-[[3-(3-fluorophenyl)-5-methyl-4H-isoxazole-5-carbonyl]amino]tetrahydrofuran-2-carboxylate]
Sorghum halepense; 21 DAT, 15 g of a.i./ha
  Herbicidal action against Sorghum halepense: 10%
Bidens pilosa; 5 g a.i./ha
  Herbicidal action: 10%
Bidens pilosa; 5 g of a.i./ha
  Herbicidal action against Bidens pilosa: 10%
Bidens pilosa; 15 g a.i./ha
  Herbicidal action: 10%
Bidens pilosa; 15 g of a.i./ha
  Herbicidal action against Bidens pilosa: 10%
Bidens pilosa; 45 g a.i./ha
  Herbicidal action: 30%
Pharbitis purpurea; 21 DAT, 15 g a.i./ha
  Herbicidal action: 60%
Setaria viridis; 1.5 g of a.i./ha
  Herbicidal action against Setaria viridis: 10%
Setaria viridis; 5 g a.i./ha
  Herbicidal action: 20%
Setaria viridis; 15 g a.i./ha
  Herbicidal action: 60%
Setaria viridis; 15 g of a.i./ha
  Herbicidal action against Setaria viridis: 60%
Echinochloa crus-galli; 5 g a.i./ha
  Herbicidal action: 10%
Echinochloa crus-galli; 15 g of a.i./ha
  Herbicidal action against Echinochloa crus-galli: 20%
Kochia scoparia [3]; 5 g a.i./ha
  Herbicidal action: 10%
Kochia scoparia [3]; 15 g a.i./ha
  Herbicidal action: 10%
Eleusine indica
  Herbicidal action: 20%
Abutilon theophrasti [4]; 5 g of a.i./ha
  Herbicidal action against Abutilon theophrasti: 10%
Abutilon theophrasti [4]; 15 g of a.i./ha
  Herbicidal action against Abutilon theophrasti: 10%
Abutilon theophrasti [4]; 45 g of a.i./ha
  Herbicidal action against Abutilon theophrasti: 20%
Amaranthus palmeri; 15 g of a.i./ha
  Herbicidal action against Amaranthus palmeri (res.): 10%
Amaranthus palmeri; 45 g of a.i./ha
  Herbicidal action against Amaranthus palmeri (res.): 30%
Amaranthus palmeri; (res.)
  Herbicidal action: 10%

## CCc1cccc(C)c1N(C(=O)CCl)[C@@H](C)COC [(B2.64) S-Metolachlor]
Digitaria sanguinalis; 50 g of a.i./ha
  Herbicidal action 21 DAT against Digitaria sanguinalis: 10%
Digitaria sanguinalis; 150 g of a.i./ha
  Herbicidal action 21 DAT against Digitaria sanguinalis: 40%
Sorghum halepense; 450 g of a.i./ha
  Herbicidal action 21 DAT against Sorghum halepense: 40%
Kochia scoparia [1]; 150 g of a.i./ha
  Herbicidal action 21 DAT against Kochia scoparia: 0%
Kochia scoparia [1]; 450 g of a.i./ha
  Herbicidal action 21 DAT against Kochia scoparia: 10%
Bidens pilosa; 150 g of a.i./ha
  Herbicidal action 21 DAT against Bidens pilosa: 10%
Bidens pilosa; 450 g of a.i./ha
  Herbicidal action 21 DAT against Bidens pilosa: 20%
Brachiaria platyphylla; 150 g of a.i./ha
  Herbicidal action 21 DAT against Brachiaria platyphylla: 10%
Brachiaria platyphylla; 450 g of a.i./ha
  Herbicidal action 21 DAT against Brachiaria platyphylla: 25%
Pharbitis purpurea; 150 g of a.i./ha
  Herbicidal action 21 DAT against Pharbitis purpurea: 0%
Pharbitis purpurea; 450 g of a.i./ha
  Herbicidal action 21 DAT against Pharbitis purpurea: 10%
Abutilon theophrasti [2]; 150 g of a.i./ha
  Herbicidal action 21 DAT against Abutilon theophrasti: 0%
Abutilon theophrasti [2]; 450 g of a.i./ha
  Herbicidal action 21 DAT against Abutilon theophrasti: 10%
Setaria viridis; 50 g of a.i./ha
  Herbicidal action 21 DAT against Setaria viridis: 30%
